Assay results as given in patent publication US20180353457A1, “ABIETANE DITERPENOID 7-ACETOXYROYLEANONES FOR USE IN CANCER TREATMENT” (University of South Carolina, priority 2017, published 2018).
Like-named read-outs stand apart in the source and are kept apart here.

Tests used:
[1] = tested on: SK-MEL-5 (melanoma) cells
[2] = tested on: MG-63 (osteosarcoma) cells; test: MTS cytotoxicity assay, MG-63; format: cell-based; details: MG-63 cells, 48 and 72 hours of exposure
Text: (§1) Human cell lines used included MG-63 (osteosarcoma), SK-OV-3 (ovarian adenocarcinoma), MDA-MB-231 (breast adenocarcinoma derived from a metastatic site), HCT 116 (colorectal carcinoma), HCT 116/200 (an FdUrd resistant subclone of HCT 116 cells), and A2780ADR (a doxorubicin resistant subclone of the ovarian carcinoma A2780). All cells were stored in liquid nitrogen until use. MG-63, SK-OV-3, MDA-MB-231, and HCT 116 cell lines were all obtained from ATCC. A2780ADR cells were obtained from Sigma-Aldrich. HCT 116/200 cells were obtained from Dr. Franklin G. Berger from the Center for Colon Cancer Research. MG-63 cells were maintained in MEM medium (Corning) supplemented with 10% Fetal Bovine Essence (VWR) and 1% penicillin/streptomycin solution (Corning). SK-OV-3 cells were maintained in McCoy's 5A Medium (Sigma) supplemented with Fetal Bovine Essence and 1% penicillin/streptomycin. […]
(§2) Cells were first grown to approximately 80% confluency within […] tissue culture flasks (VWR). […] Cells were counted using a hemocytometer and their viability was confirmed using trypan blue (Gibco). […]
(§3) In combination studies, 7-acetoxyroyleanone and FdUrd were first mixed into the same media and then added to the cells. […] The cells were incubated for 2 hours, and the absorbance of each well at 490 nm was measured using a Spectramax 190 microplate reader.

[3] = tested on: NCI-H522 (non-small cell lung cancer) cells; test: NCI-60 five dose screen, NCI-H522; details: read-out: LC50; NCI-H522, Non-small Cell Lung Cancer
[4] = tested on: MDA-MB-231 (breast adenocarcinoma) cells; test: MTS cytotoxicity assay, MDA-MB-231; format: cell-based; details: MDA-MB-231 cells
Text: as §1, §2, §3

[5] = tested on: HCT 116 (colorectal carcinoma) cells; test: MTS cytotoxicity assay, HCT 116; format: cell-based; details: HCT 116 cells
Text: as §1, §2, §3

[6] = tested on: HCT 116/200 (FdUrd resistant subclone of HCT 116) cells; test: MTS cytotoxicity assay, HCT 116/200; format: cell-based; details: HCT 116/200 cells
Text: as §1, §2, §3

[7] = tested on: A2780ADR (doxorubicin resistant subclone of ovarian carcinoma A2780) cells; test: MTS cytotoxicity assay, A2780ADR; format: cell-based; details: 48 and 72 hours of exposure
Text: as §1, §2, §3

[8] = tested on: HCC-2996 (colon cancer) cells; test: NCI-60 five dose screen, HCC-2996
[9] = tested on: NCI-60 panel of cancer cell lines; details: for GI50: across all 60 cell lines
[10] = read-out: LC50; melanoma cell line SK-OV-3 (so in the source), most sensitive to cell death
[11] = tested on: SK-OV-3 (ovarian adenocarcinoma) cells; test: MTS cytotoxicity assay, SK-OV-3; format: cell-based; details: SK-OV-3 cells
Text: as §1, §2, §3

[12] = tested on: DU-145 (prostate cancer) cells; test: NCI-60 five dose screen, DU-145; details: read-out: LC50; DU-145, Prostate
[13] = 48 and 72 hours of exposure, MTS
[14] = HCC-2996, most sensitive cell line to growth inhibition

Compound: CC(=O)O[C@@H]1C[C@H]2C(C)(C)CCC[C@]2(C)C2=C1C(=O)C(C(C)C)=C(O)C2=O [7-acetoxyroyleanone]
- CC50 [1]: 4.34 µM
- cytotoxicity (percent viability) [2]: significant cytotoxic properties
- CC50 [3]: 9.02 µM
- cell death at the lowest concentration tested ([4]; 1 μg/mL): cell death was indicated
- cytotoxicity (percent viability) [4, 13]: significant cytotoxic properties
- cell death at the lowest concentration tested ([5]; 1 μg/mL): cell death was indicated
- cytotoxicity (percent viability) [5, 13]: significant cytotoxic properties
- cytotoxicity (percent viability) ([6]; 48 and 72 hours of exposure): significant cytotoxic properties
- cytotoxic effect in combination with FdUrd (percent viability, cell number) ([6]; 48 hour exposure, combined with 1 μg/mL FdUrd): synergistic cytotoxic effect
- cytotoxicity (percent viability) [7]: significant cytotoxic properties
- GI50 [8, 14]: 405 nM
- TGI [8, 14]: 1.62 µM
- CC50 ([8]; read-out: LC50, HCC-2996, Colon): 6.41 µM
- CC50 [9]: 11.5 µM
- average TGI concentration ([9]; across the 50 cell lines with TGI within the range tested): 6.69 µM
- GI50 ([9]; read-out: average GI50 concentration, five dose screen): 1270 nM
- GI50 ([9]; read-out: range of the GI50 concentrations): 2860 nM
- CC50 [10]: 4.34 µM
- cell death at the lowest concentration tested ([11]; 1 μg/mL): cell death was indicated
- cytotoxicity (percent viability) [11, 13]: significant cytotoxic properties
- CC50 [12]: 5.67 µM
